Laboratory results: patent US20260028654A1, “BIOTECHNOLOGICAL PRODUCTION OF MACROCYCLIC LACTONES” (SYMRISE AG, priority 2022, published 2026)

Tests used:
[1] = tested on: cyclododecanone monooxygenase (CDMO); assay: Spectro-photometric activity assay (NADPH consumption at 340 nm), cell-free lysate containing CDMO; assay type: biochemical, Rhodococcus species; conditions: 0.25 mM Globanone, 0.3 mM NADPH, pH 9.0, 30° C.
From the text: (§1) The genes for the two Baeyer-Villiger Monooxygenases (BVMOs) cyclopentadecanone monooxygenase from a Pseudomonas species (CPDMO, Iwaki, H. et al., Appl. Environ. Microbiol. (2006), 72 (4): 2707-2720) and cyclododecanone monooxygenase from a Rhodococcus species (CDMO, Kostichka, K. et al., J. Bacteriol. (2001), 183 (21): 6478-6486) were cloned using standard molecular biology tools. For recombinant enzyme production in Escherichia coli an L-arabinose inducible vector derived from a pBAD plasmid carrying a kanamycin/neomycin resistance gene was used in an E. coli K-12 strain, in which the Larabinose catabolism is disrupted. Glycerol stocks were used to inoculate 5 ml overnight cultures (LB, 100 μg/ml neomycin). […]
(§2) Protein concentrations of the lysates were determined to calculate specific activities (Protein determination by Bradford). The concentrations of total protein in the cell-free extracts (CFEs) were determined using a modified protein-dye binding method as described by Bradford in Anal. Biochem. 72: 248-254 (1976).
(§3) To determine if the two BVMOs were active on Globanone® a spectro-photometric activity assay was applied. The assay makes use of the strong absorbance decrease at 340 nm upon consumption of the NADPH cofactor. […] The decrease of absorbance was followed for 3 minutes before substrate addition to detect potential, unspecific NADPH oxidation. […]

[2] = tested on: cyclopentadecanone monooxygenase (CPDMO); assay: Spectro-photometric activity assay (NADPH consumption at 340 nm), cell-free lysate containing CPDMO; assay type: biochemical, Pseudomonas species; conditions: 0.25 mM Globanone, 0.3 mM NADPH, pH 9.0, 30° C.
From the text: as §1, §2, §3

`O=C1CCCCCCC=CCCCCCCC1` [Globanone®] showed a volumetric activity ([1]; E. coli cell-free lysate containing CDMO (18.6 mg/ml protein)) of 3.71 U/ml, a specific activity ([1]; per mg total cell-free lysate protein, CDMO lysate) of 0.20 U/mg and a volumetric activity ([2]; E. coli cell-free lysate containing CPDMO (9.9 mg/ml protein)) of 0.04 U/ml. It also gave a specific activity ([2]; per mg total cell-free lysate protein, CPDMO lysate) of 0.004 U/mg.
